Measured values: ChEMBL document CHEMBL2016566, “Melanogenesis inhibitory bisabolane-type sesquiterpenoids from the roots of Angelica koreana” (Bioorg Med Chem Lett, 2012)
Converted amounts (≈) assume the structure as drawn.

Columns and labels:
B16 [1] = assay: Inhibition of alpha-MSH-stimulated melanogenesis in mouse B16 cells assessed as melanin release after 72 hrs; format: functional, cell-based; settings: for IC50: B16, 72 h
B16 [2] = assay: Cytotoxicity against mouse B16 cells assessed as cell viability; format: cell-based

Row | Structure (SMILES) | inhibition (B16 [1]) | IC50 (B16 [1]) [µg/mL] | Activity (B16 [2])
1 | C/C=C(/C)C(=O)O[C@H]1Cc2cc3ccc(=O)oc3cc2OC1(C)C [DECURSINOL ANGELATE] | Dose-dependent effect | 5.8 (≈ 17.7 µM) | Non-toxic
2 | CO[C@@]1(C(C=C(C)C)OC(C=C(C)C)[C@]2(O)O[C@H]3CC(C)=CC(=O)[C@H]3[C@@]2(C)O)O[C@H]2CC(C)=CC(=O)[C@H]2[C@@]1(C)O (some centres undefined) [OSTERIVOLONE C] | Dose-dependent effect | 4.5 (≈ 8.03 µM) | Non-toxic
3 | CC(C)=C/C=C1\O[C@H]2C[C@](C)(O)CC(=O)[C@H]2[C@@]1(C)O [OSTERIVOLONE D] | Dose-dependent effect | 1.9 (≈ 7.13 µM) | Non-toxic
4 | CO[C@@]1(/C=C/C(C)(C)O)O[C@H]2CC(C)=CC(=O)[C@H]2[C@@]1(C)O [OSTERIVOLONE A] | Dose-dependent effect | 1.1 (≈ 3.71 µM) | Non-toxic
5 | OC[C@H]1O[C@@H](Oc2ccc(O)cc2)[C@H](O)[C@@H](O)[C@@H]1O [ARBUTIN] |  | 67.9 (≈ 249 µM) | 
6 | COC(C)(C)/C=C/[C@]1(OC)O[C@H]2CC(C)=CC(=O)[C@H]2[C@@]1(C)O [OSTERIVOLONE B] | Dose-dependent effect | 5.6 (≈ 18 µM) | Non-toxic
7 | C=C[C@@H](O)C#CC#C[C@@H](O)/C=C\CCCCCCC [FALCARINDIOL] | Dose-dependent effect | 2.9 (≈ 11.1 µM) | Non-toxic
8 | O=c1ccc2cc3ccoc3cc2o1 [PSORALEN] |  | > 200 | 
9 | CC(C)=C/C=C1\O[C@@H]2CC(C)=CC(=O)[C@@H]2[C@]1(C)O [BISABOLANGELONE] | Dose-dependent effect | 5.3 (≈ 21.3 µM) | Non-toxic
10 | O=c1cc(CO)occ1O [KOJIC ACID] |  | 5.5 (≈ 38.7 µM) | 
